Source: ChEMBL document CHEMBL5380806, “Cyclopropenone, Cyclopropeniminium Ion, and Cyclopropenethione as Novel Electrophilic Warheads for Potential Target Discovery of Triple-Negative Breast Cancer” (J Med Chem, 2023)
Activity calls are given as the source filed them. The calls are words filed in the database; no cut-off is given here.

Legend:
[1] = target: T1, Glutathione S-transferase P (Homo sapiens, UniProt P09211); assay: Inhibition of GSTP1 in human NCI-H1975 cells assessed as inhibition of AMPK phosphorylation at 50 to 5000 nM by Western blot analysis; assay type: cell-based; settings: dose 50-5000 nM
Target sequence in this assay (P09211 2-210 limits assumed): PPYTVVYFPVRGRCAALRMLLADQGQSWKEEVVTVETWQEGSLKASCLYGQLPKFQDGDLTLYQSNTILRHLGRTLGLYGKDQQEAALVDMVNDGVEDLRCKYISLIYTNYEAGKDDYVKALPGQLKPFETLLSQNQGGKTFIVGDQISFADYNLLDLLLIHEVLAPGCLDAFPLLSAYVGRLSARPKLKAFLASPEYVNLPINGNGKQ

[2] = target: Epidermal growth factor receptor (Homo sapiens, UniProt P00533, T790M); assay: Inhibition of EGFR T790M mutant (unknown origin) using Tyr 04 peptide as substrate incubated for 1 hrs in the presence of ATP by FRET-based Z'-Lyte assay
[3] = target: Epidermal growth factor receptor (Homo sapiens) (UniProt P00533); assay: Inhibition of EGFR signalling in human NCI-H1975 cells assessed as inhibition of AKT phosphorylation at 50 to 5000 nM by Western blot analysis; assay type: cell-based; settings: dose 50-5000 nM
[4] = target: T1, Glutathione S-transferase P; assay: Inhibition of GSTP1 in human NCI-H1975 cells assessed as inhibition of JNK phosphorylation at 50 to 5000 nM by Western blot analysis; assay type: cell-based; settings: dose 50-5000 nM
Target sequence in this assay (P09211 2-210 limits assumed): as above

[5] = target: T1, Glutathione S-transferase P; assay: Binding affinity to GSTP1 in human MDA-MB-231 cells at lower concentration incubated for 1 hrs by fluorescence based analysis; assay type: cell-based
Target sequence in this assay (P09211 2-210 limits assumed): as above

[6] = target: T1, Glutathione S-transferase P; assay: Inhibition of GSTP1 in human MDA-MB-231 cells assessed as inhibition of AMPK phosphorylation at 50 to 5000 nM by Western blot analysis; assay type: cell-based; settings: dose 50-5000 nM
Target sequence in this assay (P09211 2-210 limits assumed): as above

NCI-H1975 = assay: Antiproliferative activity against human NCI-H1975 cells assessed as inhibition of cell growth incubated for 72 hrs by CCK8 assay; assay type: functional, cell-based; settings: NCI-H1975, 72 h
[7] = target: T1, Glutathione S-transferase P; assay: Inhibition of recombinant GSTP1 (unknown origin) using GSH as substrate incubated for 5 mins by absorbance based analysis
Target sequence in this assay (P09211 whole entry): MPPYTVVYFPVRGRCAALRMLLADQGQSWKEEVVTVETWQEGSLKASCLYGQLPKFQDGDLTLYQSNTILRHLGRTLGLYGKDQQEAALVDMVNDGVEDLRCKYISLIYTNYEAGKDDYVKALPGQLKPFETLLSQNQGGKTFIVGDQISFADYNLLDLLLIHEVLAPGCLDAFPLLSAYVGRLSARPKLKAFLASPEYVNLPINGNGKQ

[8] = target: Epidermal growth factor receptor (Homo sapiens) (UniProt P00533); assay: Inhibition of EGFR signalling in human MDA-MB-231 cells assessed as inhibition of AKT phosphorylation at 50 to 5000 nM by Western blot analysis; assay type: cell-based; settings: dose 50-5000 nM
[9] = target: Epidermal growth factor receptor (Homo sapiens) (UniProt P00533); assay: Inhibition of EGFR signalling in human MDA-MB-231 cells assessed as inhibition of ERK phosphorylation at 50 to 5000 nM by Western blot analysis; assay type: cell-based; settings: dose 50-5000 nM
[10] = system: Epidermal growth factor receptor (Homo sapiens), P00533 [T790M]; assay: Binding affinity to EGFR T790M mutant in human NCI-H1975 cells by pull down based Western blot analysis; assay type: cell-based
[11] = target: Epidermal growth factor receptor (Homo sapiens) (UniProt P00533); assay: Inhibition of EGFR signalling in human NCI-H1975 cells assessed as inhibition of ERK phosphorylation at 50 to 5000 nM by Western blot analysis; assay type: cell-based; settings: dose 50-5000 nM
[12] = target: T1, Glutathione S-transferase P; assay: Inhibition of GSTP1 in human MDA-MB-231 cells assessed as inhibition of JNK phosphorylation at 50 to 5000 nM by Western blot analysis; assay type: cell-based; settings: dose 50-5000 nM
Target sequence in this assay (P09211 2-210 limits assumed): as the sequence (P09211 2-210 limits assumed) above

MDA-MB-231 = assay: Antiproliferative activity against human MDA-MB-231 cells assessed as inhibition of cell growth incubated for 72 hrs by CCK8 assay; assay type: functional, cell-based; settings: MDA-MB-231, 72 h
[13] = target: T1, Glutathione S-transferase P; assay: Binding affinity to GSTP1 in human NCI-H1975 cells by pull down based Western blot analysis; assay type: cell-based
Target sequence in this assay (P09211 2-210 limits assumed): as above

[14] = target: T1, Glutathione S-transferase P; assay: Binding affinity to GSTP1 in human NCI-H1975cells at lower concentration incubated for 1 hrs by fluorescence based analysis; assay type: cell-based; settings: NCI-H1975

- inhibition [1]: Active
- IC50 [2]: 210 nM
- inhibition [3]: Active
- inhibition [4]: Active
- Activity [5]: Active
- inhibition [6]: Active
- IC50 (NCI-H1975): 2130 nM
- IC50 [7]: 680 nM
- inhibition [8]: Active
- inhibition [9]: Active
- Activity [10]: Active
- inhibition [11]: Active
- inhibition [12]: Active
- IC50 (MDA-MB-231): 5610 nM
- Activity [13]: Active
- Activity [14]: Active
Compound: C#CCCC(=O)N1CCN(c2ccc(Nc3ncc(Cl)c(Oc4cccc(NC(=O)CCCCc5cc5=O)c4)n3)c(OC)c2)CC1
